# Results reported in ChEMBL document CHEMBL1150913, “Novel cytotoxic cembranoids from the soft coral Sinularia flexibilis” (1998).
# Legend:
# Assay type in all cases: functional
# A549 = test: Cytotoxicity against human A549 cells after 6 days by MTT assay; settings: A549, 144 h, read-out: ED50 (the source's name)
# HT-29 = test: Cytotoxicity against human HT-29 cells after 6 days by MTT assay; settings: HT-29, 144 h, read-out: ED50 (the source's name)
# KB = test: Cytotoxicity against human KB cells after 3 days by MTT assay; settings: 72 h, read-out: ED50 (the source's name)
# P388 = test: Cytotoxicity against mouse P388 cells after 3 days by MTT assay; settings: P388, 72 h, read-out: ED50 (the source's name)
smiles,measurement,setting,value
C/C1=C\CC[C@@](C)(O)[C@H]2C[C@H](CC[C@](C)(O)[C@H](O)CC1)[C@@H](C)C(=O)O2 [DIHYDROSINUFLEXOLIDE],EC50,A549,16.8 µg/mL
same,EC50,HT-29,32.4 µg/mL
same,EC50,KB,> 50 µg/mL
same,EC50,P388,3.86 µg/mL
C=C(C(=O)OC)[C@H]1CC[C@](C)(O)[C@H](O)CC/C(C)=C/CC[C@@](C)(O)[C@@H](O)C1 [SINUFLEXIBILIN],EC50,A549,0.72 µg/mL
same,EC50,HT-29,0.22 µg/mL
same,EC50,KB,1.73 µg/mL
same,EC50,P388,0.27 µg/mL
C=C1C(=O)O[C@@H]2C[C@@H]1CC[C@](C)(O)[C@H](O)CC/C(C)=C/CC[C@@]2(C)O [SINUFLEXOLIDE],EC50,A549,0.68 µg/mL
same,EC50,HT-29,0.39 µg/mL
same,EC50,KB,0.46 µg/mL
same,EC50,P388,0.16 µg/mL
